According to US20240343733A1, “COMPOUNDS FOR TARGETING DEGRADATION OF IRAK4 PROTEINS” (BIOGEN MA INC., priority 2021, published 2024):

Biological target: T1, IRAK4 (Homo sapiens, UniProt Q9NWZ3)
T1 construct: 293Tcells expressing HiBiT-tagged IRAK4 were then added into 384-well plates
T1 sequence (Q9NWZ3 1-460): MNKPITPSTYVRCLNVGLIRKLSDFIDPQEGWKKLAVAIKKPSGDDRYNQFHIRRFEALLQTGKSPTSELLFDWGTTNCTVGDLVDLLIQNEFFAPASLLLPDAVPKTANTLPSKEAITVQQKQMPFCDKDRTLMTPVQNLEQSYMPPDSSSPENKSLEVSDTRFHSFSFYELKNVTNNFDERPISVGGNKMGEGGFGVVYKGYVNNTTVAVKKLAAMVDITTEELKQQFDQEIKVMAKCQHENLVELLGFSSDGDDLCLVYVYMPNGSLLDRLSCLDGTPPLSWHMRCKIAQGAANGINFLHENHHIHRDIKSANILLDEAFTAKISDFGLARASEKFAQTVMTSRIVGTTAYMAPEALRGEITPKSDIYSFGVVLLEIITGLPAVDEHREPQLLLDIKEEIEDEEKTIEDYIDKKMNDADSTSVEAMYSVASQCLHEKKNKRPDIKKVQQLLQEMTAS
Assay: IRAK4 Degradation Assay, HiBiT Method
Assay type: cell-based
Conditions: 293T cells expressing HiBiT-tagged IRAK4, 6 hours
Outline: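 Luminescent read-out with Nano-Glo HiBiT lytic reagent after 6 h compound exposure at 37 °C. Cells were HiBiT-IRAK4 knock-in 293T (C-terminal tag), 10,000 per well. Compounds ran as 11-point half-log dilutions from […] highest dose, duplicate wells; DMSO served as negative control.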

Row | Compound | DC50 [nM]
1 | CC(C)Oc1cc2nc(C3CCN(C(=O)CN4CCC(c5ccc(C6(F)CCC(=O)NC6=O)cc5)CC4)CC3)cn2cc1C(=O)Nc1cnn2cccnc12 (stereo not shown) [Example 89, 2-[1-[2-[4-[4-(3-fluoro-2,6-dioxo-3-piperidyl)phenyl]-1-piperidyl]acetyl]-4-piperidyl]-7-isopropoxy-N-pyrazolo[1,5-a]pyrimidin-3-yl-imidazo[1,2-a]pyridine-6-carboxamide] | < 10
2 | CC(C)Oc1cc2nc(C3CCN(C(=O)CC4(O)CCN(c5ccc(NC6CCC(=O)NC6=O)cc5)CC4)CC3)cn2cc1C(=O)Nc1cccc(C(F)(F)F)n1 (stereo not shown) [Example 72, 2-[1-[2-[1-[4-[(2,6-dioxo-3-piperidyl)amino]phenyl]-4-hydroxy-4-piperidyl]acetyl]-4-piperidyl]-7-isopropoxy-N-[6-(trifluoromethyl)-2-pyridyl]imidazo[1,2-a]pyridine-6-carboxamide] | 10 to 100
3 | CC(C)Oc1cc2nc(C3(C)CCN(CC(=O)N4CCC(c5ccc(NC6CCC(=O)NC6=O)cc5)CC4)CC3)cn2cc1C(=O)Nc1cccc(C(F)(F)F)n1 (stereo not shown) [Example 95, 2-[1-[2-[4-[4-[(2,6-dioxo-3-piperidyl)amino]phenyl]-1-piperidyl]-2-oxo-ethyl]-4-methyl-4-piperidyl]-7-isopropoxy-N-[6-(trifluoromethyl)-2-pyridyl]imidazo[1,2-a]pyridine-6-carboxamide] | 100 to 500
4 | CC(C)Oc1cc2nc([C@H]3CC[C@H](CN(C)C4CCN(c5cccc(NC6CCC(=O)NC6=O)c5)CC4)CC3)cn2cc1C(=O)Nc1cccc(C(F)(F)F)n1 (stereo partly shown) [Example 9, 2-[4-[[[1-[3-[(2,6-dioxo-3-piperidyl)amino]phenyl]-4-piperidyl]-methyl-amino]methyl]cyclohexyl]-7-isopropoxy-N-[6-(trifluoromethyl)-2-pyridyl]imidazo[1,2-a]pyridine-6-carboxamide] | 500 to 1000
5 | CC(C)Oc1cc2nc(C3CCN(CC(=O)N4CCC(c5ccc(NC6CCC(=O)NC6=O)cc5)CC4)CC3)cn2cc1C(=O)Nc1cccc(C(F)(F)F)c1 (stereo not shown) [Example 106, 2-[1-[2-[4-[4-[(2,6-dioxo-3-piperidyl)amino]phenyl]-1-piperidyl]-2-oxo-ethyl]-4-piperidyl]-7-isopropoxy-N-[3-(trifluoromethyl)phenyl]imidazo[1,2-a]pyridine-6-carboxamide] | 100 to 500
6 | CC(C)Oc1cc2nc([C@H]3CC[C@H](CN(C)C4CCN(c5cccc6c5n(C)c(=O)n6C5CCC(=O)NC5=O)CC4)CC3)cn2cc1C(=O)Nc1cccc(C(F)F)n1 (stereo partly shown) [Example 21, N-[6-(difluoromethyl)-2-pyridyl]-2-[4-[[[1-[1-(2,6-dioxo-3-piperidyl)-3-methyl-2-oxo-benzimidazol-4-yl]-4-piperidyl]-methyl-amino]methyl]cyclohexyl]-7-isopropoxy-imidazo[1,2-a]pyridine-6-carboxamide] | 10 to 100
7 | CC(C)Oc1cc2nc([C@H]3CC[C@H](CN4CCC(c5cccc6c5n(C)c(=O)n6C5CCC(=O)NC5=O)CC4)CC3)cn2cc1C(=O)Nc1cccc(C(F)(F)F)n1 (stereo partly shown) [Example 3, 2-[4-[[4-[1-(2,6-dioxo-3-piperidyl)-3-methyl-2-oxo-benzimidazol-4-yl]-1-piperidyl]methyl]cyclohexyl]-7-isopropoxy-N-[6-(trifluoromethyl)-2-pyridyl]imidazo[1,2-a]pyridine-6-carboxamide] | 100 to 500
8 | CC(C)Oc1cc2nc([C@H]3CC[C@H](CN(C)C4CCN(Cc5ccc(NC6CCC(=O)NC6=O)cc5)CC4)CC3)cn2cc1C(=O)Nc1cccc(C(F)F)n1 (stereo partly shown) [Example 32, N-[6-(difluoromethyl)-2-pyridyl]-2-[4-[[[1-[[4-[(2,6-dioxo-3-piperidyl)amino]phenyl]methyl]-4-piperidyl]-methyl-amino]methyl]cyclohexyl]-7-isopropoxy-imidazo[1,2-a]pyridine-6-carboxamide] | 100 to 500

The next lines start with the values.

Row | DC50 [nM] | Compound
9 | 10 to 100 | CC(C)Oc1cc2nc([C@H]3CC[C@H](CN4CCC(c5cccc(NC6CCC(=O)NC6=O)c5F)CC4)CC3)cn2cc1C(=O)Nc1cccc(C(F)F)n1 (stereo partly shown) [Example 22, N-[6-(difluoromethyl)-2-pyridyl]-2-[4-[[4-[3-[(2,6-dioxo-3-piperidyl)amino]-2-fluoro-phenyl]-1-piperidyl]methyl]cyclohexyl]-7-isopropoxy-imidazo[1,2-a]pyridine-6-carboxamide]
10 | 10 to 100 | CC(C)Oc1cc2nc(C3CCN(C(=O)CCCNc4ccc(C5CCC(=O)NC5=O)cn4)CC3)cn2cc1C(=O)Nc1cccn([C@H]2C[C@H]2F)c1=O (stereo partly drawn) [Example 164, 2-(1-(4-((5-(2,6-dioxopiperidin-3-yl)pyridin-2-yl)amino)butanoyl)piperidin-4-yl)-N-(1-((1S,2R)-2-fluorocyclopropyl)-2-oxo-1,2-dihydropyridin-3-yl)-7-isopropoxyimidazo[1,2-a]pyridine-6-carboxamide]
11 | 10 to 100 | CC(C)Oc1cc2nc(C3CCN(C(=O)CN4CCC(c5ccc(C6CCC(=O)NC6=O)cc5F)CC4)CC3)cn2cc1C(=O)Nc1cccc(C(F)F)n1 (stereo not shown) [Example 80, N-[6-(difluoromethyl)-2-pyridyl]-2-[1-[2-[4-[4-(2,6-dioxo-3-piperidyl)-2-fluoro-phenyl]-1-piperidyl]acetyl]-4-piperidyl]-7-isopropoxy-imidazo[1,2-a]pyridine-6-carboxamide]
12 | < 10 | CC(C)Oc1cc2nn(C3CCN(C(=O)CC4CCN(c5ccc(C6CCC(=O)NC6=O)cn5)CC4)CC3)cc2cc1C(=O)Nc1cccn([C@H]2C[C@H]2F)c1=O (stereo partly drawn) [Example 149, 2-(1-(2-(1-(5-(2,6-dioxopiperidin-3-yl)pyridin-2-yl)piperidin-4-yl)acetyl)piperidin-4-yl)-N-(1-((1S,2R)-2-fluorocyclopropyl)-2-oxo-1,2-dihydropyridin-3-yl)-6-isopropoxy-2H-indazole-5-carboxamide]
13 | < 10 | CC(C)Oc1cc2nn([C@H]3CC[C@H](CN4CC[C@H](c5cc6c(cc5F)c(N5CCC(=O)NC5=O)nn6C)[C@H](O)C4)CC3)cc2cc1C(=O)Nc1cccn([C@H]2C[C@H]2F)c1=O [Example 184, 2-((1S,4S)-4-(((3S,4R)-4-(3-(2,4-dioxotetrahydropyrimidin-1(2H)-yl)-5-fluoro-1-methyl-1H-indazol-6-yl)-3-hydroxypiperidin-1-yl)methyl)cyclohexyl)-N-(1-((1S,2R)-2-fluorocyclopropyl)-2-oxo-1,2-dihydropyridin-3-yl)-6-isopropoxy-2H-indazole-5-carboxamide]
14 | 10 to 100 | CC(C)Oc1cc2nc(C3CCN(CC(F)=C4CCN(c5ncc(C6CCC(=O)NC6=O)cc5F)CC4)CC3)cn2cc1C(=O)Nc1cccc(C(F)F)n1 (stereo not shown) [Example 112, N-[6-(difluoromethyl)-2-pyridyl]-2-[1-[2-[1-[5-(2,6-dioxo-3-piperidyl)-3-fluoro-2-pyridyl]-4-piperidylidene]-2-fluoro-ethyl]-4-piperidyl]-7-isopropoxy-imidazo[1,2-a]pyridine-6-carboxamide]
15 | < 10 | CC(C)Oc1cc2nn([C@H]3CC[C@H](CN4CC[C@H](c5ccc6c(N7CCC(=O)NC7=O)nn(C)c6c5)[C@H](O)C4)CC3)cc2cc1C(=O)Nc1cccn(C2C[C@H]2F)c1=O (stereo partly drawn) [Example 116, 2-((1S,4S)-4-(((3S,4R)-4-(3-(2,4-dioxotetrahydropyrimidin-1(2H)-yl)-1-methyl-1H-indazol-6-yl)-3-hydroxypiperidin-1-yl)methyl)cyclohexyl)-N-(1-((1S,2R)-2-fluorocyclopropyl)-2-oxo-1,2-dihydropyridin-3-yl)-6-isopropoxy-2H-indazole-5-carboxamide]
16 | < 10 | CC(C)Oc1cc2nn([C@H]3CC[C@H](CN4CC5(CCN(c6ncc(C7CCC(=O)NC7=O)cc6F)CC5)C4)CC3)cc2cc1C(=O)Nc1cccn(C2CC2)c1=O (stereo partly shown) [Example 124, N-(1-cyclopropyl-2-oxo-1,2-dihydropyridin-3-yl)-2-((r,4r)-4-((7-(5-(2,6-dioxopiperidin-3-yl)-3-fluoropyridin-2-yl)-2,7-diazaspiro[3.5]nonan-2-yl)methyl)cyclohexyl)-6-isopropoxy-2H-indazole-5-carboxamide]
17 | < 10 | CC(C)Oc1cc2nc([C@H]3CC[C@H](CN4CCC(c5ccc6c(c5)n(C)c(=O)n6C5CCC(=O)NC5=O)CC4)CC3)cn2cc1C(=O)Nc1cccn(C2CC2)c1=O (stereo partly shown) [Example 167, N-(1-cyclopropyl-2-oxo-1,2-dihydropyridin-3-yl)-2-((1r,4r)-4-((4-(1-(2,6-dioxopiperidin-3-yl)-3-methyl-2-oxo-2,3-dihydro-1H-benzo[d]imidazol-5-yl)piperidin-1-yl)methyl)cyclohexyl)-7-isopropoxyimidazo[1,2-a]pyridine-6-carboxamide]
18 | < 10 | CC(C)Oc1cc2nn([C@H]3CC[C@H](CN[C@@H]4CC[C@H](c5ccc6c(N7CCC(=O)NC7=O)nn(C)c6c5)[C@H](O)C4)CC3)cc2cc1C(=O)Nc1cccn([C@H]2C[C@H]2F)c1=O [Example 138, 2-((1R,4S)-4-((((1R,3R,4R)-4-(3-(2,4-dioxotetrahydropyrimidin-1(2H)-yl)-1-methyl-1H-indazol-6-yl)-3-hydroxycyclohexyl)amino)methyl)cyclohexyl)-N-(1-((1S,2R)-2-fluorocyclopropyl)-2-oxo-1,2-dihydropyridin-3-yl)-6-isopropoxy-2H-indazole-5-carboxamide]
19 | 10 to 100 | CC(C)Oc1cc2nn([C@H]3CC[C@H](CN4CCC(c5ccc(O[C@@H]6CCC(=O)NC6=O)cc5)CC4)CC3)cc2cc1C(=O)Nc1cccn(C2CC2)c1=O (single isomer, unassigned) [Example 143]
